Patent US6417327B1, “Peptide capable of regulating physiological function of FGF-5 and pharmaceutical composition containing the peptide” (Agency of Industrial Science and Technology, priority 1999, dated 2002)
No end group written: not given here.

Experiments:
[1] = system: platelets; test: Determination of thrombocytosis activity (number of platelets); format: in vivo; conditions: ICR mice, intraperitoneal; for increase of platelet: 1 μg/kg
Experimental: ICR mice (male, 6 weeks old, weights 29-32 g) were grouped into 4 groups of six mice. A test solution containing the above-mentioned FGF-5 peptide 6 was intraperitoneally administered for 10 successive days.
The peptide (3.3 mg/ml) in an injection solution (0.9% saline containing 100 μg/ml bovine serum albumin (Fraction V)) was administered to the mice at 0.3 ml/mouse (33 mg/kg) At the same time, human recombinant thrombopoietin solution (0.1 μg/ml) and human recombinant interleukin 6 solution (0.1 μg/ml) were prepared, and intraperitoneally administered for 0.3 ml per mouse (1 μg/kg). Five μl of blood was collected from the caudal vein of each mouse, and immediately mixed with 20 μl of 3.8% sodium citrate in a test tube. Subsequently, the blood mixtures were serially diluted twice with Cellpack and determined for the number of platelets, as well as to determine the numbers of erythrocytes and hemacrit values with Sysmex F-820 (TOA Electronics Ltd.)

[2] = system: FGF-5; test: Determination of DNA-synthesis-inhibiting activity (uptake of tritium, 3HTdR) in the presence of recombinant FGF-5; format: cell-based, mouse; conditions: Balb/c3T3 cells, test solution FGF-5(+) with heparin 5 μg/ml, recombinant FGF-5 10^-10 M, peptide 10^-7 to 10^-3 M
Experimental: (§1) Balb/c3T3 cells (1.5×10^4 cells/500 μl) were plated on a 24-well culture plate and cultured in a DMEM medium for 24 hours in the presence o f 10% FCS. After washing the cells with the medium, a DMEM medium containing 0.3% FCS was added thereto to further culture the cells for 24 hours to synchronize the cells. To the mixture, test solutions [FGF-5(+)] containing heparin (5 μg/ml), one of FGF-5 peptides 1-5 synthesized in Example 1 (10^−7 to 10^−3 M) and the recombinant FGF-5 prepared in Reference Example 1 (10^−10 M) were added. After 16 hours of cultivation, 3 HTdR was added, and the cells were further cultured for 4 hours in a CO2 incubator. The supernatants were aspirated. The cells were washed with PBS, added with 10% TCA (125 μl), and incubated at room temperature. After confirming the immobilization of the cells, the supernatants were discarded. Five-hundred ul of 0.5N NaOH was added and the mixture was further incubated at room temperature for an hour, added with 3 ml scintillator and determined for the uptake of tritium into the cells with a liquid scintillation counter.
As controls for the determinations of inhibiting and promoting activities, a test solution containing heparin (5 μg/ml) and the recombinant FGF-5 (10^−10 M) prepared in Reference Example 1 was used.

[3] = system: Balb/c3T3 cells; test: Determination of DNA-synthesis-promoting activity (uptake of tritium, 3HTdR) without FGF-5; format: cell-based; conditions: test solution FGF-5(-) with heparin, peptide 10^-7 to 10^-3 M, without the addition of FGF-5
Experimental: as §1
The uptake of tritium into cells was determined as described in (1) above with a liquid scintillation counter except that test solutions [FGF-5(−)] containing heparin and one of FGF-5 peptides 1-5 synthesized in Example 1 were used. […]

[4] = system: mouse bone marrow cells; test: Differentiating and proliferating activities to give megakaryocytes (increase of acetylcholineesterase activity); format: cell-based; conditions: cultured 4 days, acetylcholineesterase activity by fluorescence
Experimental: The differentiating and proliferating activities to give megakaryocytes were determined for this peptide, as the increase of acetylcholineesterase activity, by using mouse bone marrow cells as follows.
Bone marrow cells were taken from femur of ICR mouse (male, 6 weeks old), suspended in RPMI 1640 medium containing 1% fetal calf serum (FCS), and centrifuged. The supernatant was removed and the resultant was suspended in RPMI 1640 medium containing 0.5 mM DFP (diisopropylfluorophosphate) and 0.1% BSA (bovine serum albumin), and left to stand at room temperature for 20 min. Thereafter, the cells were washed with the same culture twice and suspended in RPMI 1640 medium containing 1% Neutridoma-SP and 0.1% BSA such that the number of cells was 2×10^6 cells/ml. The thus-prepared bone marrow cell suspension was dispensed in 100 μl into a 96-well culture plate, and cultured with a test solution containing 50 μl of FGF-5 peptide 6 at 37° C. for 4 days in the presence of 5% CO2.
Thereafter, the supernatant was removed, and the resultant was washed with PBS(−) twice and added with 180 μl 50 mM HEPES buffer (pH 7.6) containing 0.2% (w/v) Triton X-100 and 0.12 M NaCl and with 20 ul solution containing 5.6 mM acetylthiocholine iodide. […]

With “human recombinant thrombopoietin: human recombinant thrombopoietin solution (0.1 μg/ml), comparator in the platelet test” the increase of platelet [1] was “about 1.6 fold”.

With “Gln Val His Arg (QVHR; SEQ ID NO3 represents a partial sequence (corresponding to amino acids 120-123) of the amino acid sequence of human FGF-5S.) [FGF-5 peptide 5]” the DNA-synthesis-inhibiting activity [2] was “inhibited DNA synthesis”.

In the case of HEANMLSQVHR [FGF-5 peptide 4], the DNA-synthesis-inhibiting activity [2] is reported as “inhibited DNA synthesis”.

In the case of “Pro Asp Gly Lys Val Asn Gly Ser His Glu Ala Asn Met Leu Ser GIn Val His Arg (PDGKVNGSHEANMLSQVHR; SEQ ID NO10 represents a partial sequence of the amino acid sequence of human FGF-5.) [FGF-5 peptide 1]”, the DNA-synthesis-promoting activity [3] is reported as “promoted DNA synthesis”.

For “human recombinant interleukin 6: human recombinant interleukin 6 solution (0.1 μg/ml), comparator in the platelet test”, the increase of platelet [1] was “about 1.6 fold”.

In the case of HEANMLS [FGF-5 peptide 3], the DNA-synthesis-promoting activity [3] is reported as “promoted DNA synthesis”.

In the case of PDGKVNGSHEANM [FGF-5 peptide 6], the “increase of the numbers of platelets” value ([1]; 33 mg/kg, 10 successive days, two to 4 days after the administration) is reported as 1.6 folds and the “differentiating and proliferating activities to give megakaryocytes” value [4] is reported as “exerts differentiating and proliferating activities to give megakaryocytes”.
